Tested on: LNCaP cells expressing ARR2PB-FireflyLuc and CMV-RenillaLuc
Test: LNCaP ARR2PB-FireflyLuc reporter assay, antagonist mode
Assay type: cell-based
Details: Homo sapiens, LNCaP, 48 h, +0.5 nM DHT, 48 h at 37° C., read-out: LNCap Antagonist Archive: IC50
Method in brief: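 LNCaP cells carrying ARR2PB-firefly and CMV-Renilla luciferase reporters were exposed to compound with 0.5 nM DHT for 48 h at 37° C. Remaining activity was scaled between 0.5 nM DHT alone (high) and 10 uM enzalutamide + 0.5 nM DHT (low). IC50 from non-linear regression, reported in bins A–D.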

Structure (SMILES) | IC50 [µM]
Cc1nccc2cc(C(=O)N(C)C34CC(F)(C3)C4)n(C)c12 [Example 132, N-{3-fluorobicyclo[1.1.1]pentan-1-yl}-N,1,7-trimethylpyrrolo[2,3-c]pyridine-2-carboxamide] | 1 to 10
CN(C(=O)c1cc2ccnc(C#N)c2n1C)C12CC(F)(C1)C2 [Example 133, 7-cyano-N-{3-fluorobicyclo[1.1.1]pentan-1-yl}-N,1-dimethylpyrrolo[2,3-c]pyridine-2-carboxamide] | 0.1 to 1
CC(C)N(C)C(=O)c1cc2ccnc(Cl)c2n1C [Example 134, 7-chloro-N-isopropyl-N,1-dimethylpyrrolo[2,3-c]pyridine-2-carboxamide] | 0.1 to 1
NCCn1c(C(=O)NC23CC(F)(C2)C3)cc2ccnc(Cl)c21 [Example 137, 1-(2-aminoethyl)-7-chloro-N-{3-fluorobicyclo[1.1.1]pentan-1-yl}pyrrolo[2,3-c]pyridine-2-carboxamide] | > 10
O=C(NC12CC(F)(C1)C2)c1cc2ccnc(Cl)c2n1CCO [Example 138, 7-chloro-N-{3-fluorobicyclo[1.1.1]pentan-1-yl}-1-(2-hydroxyethyl)pyrrolo[2,3-c]pyridine-2-carboxamide] | 1 to 10
COCCn1c(C(=O)NC23CC(F)(C2)C3)cc2ccnc(Cl)c21 [Example 139, 7-chloro-N-{3-fluorobicyclo[1.1.1]pentan-1-yl}-1-(2-methoxyethyl)pyrrolo[2,3-c]pyridine-2-carboxamide] | 1 to 10
Cn1c(C(=O)NC23CC(F)(C2)C3)c(F)c2ccnc(Cl)c21 [Example 140, 7-chloro-3-fluoro-N-{3-fluorobicyclo[1.1.1]pentan-1-yl}-1-methylpyrrolo[2,3-c]pyridine-2-carboxamide] | 0.1 to 1
O=C(NC12CC(F)(C1)C2)c1cc2ccnc(Cl)c2n1CCN1CCOCC1 [Example 141, 7-chloro-N-{3-fluorobicyclo[1.1.1]pentan-1-yl}-1-[2-(morpholin-4-yl)ethyl]pyrrolo[2,3-c]pyridine-2-carboxamide] | > 10
Cn1c(C(=O)NC23CC(C)(C2)C3)cc2ccnc(Cl)c21 [Example 142, 7-chloro-1-methyl-N-{3-methylbicyclo[1.1.1]pentan-1-yl}pyrrolo[2,3-c]pyridine-2-carboxamide] | 1 to 10
Cn1c(C(=O)NC2CCC2)cc2ccnc(Cl)c21 [Example 143, 7-chloro-N-cyclobutyl-1-methylpyrrolo[2,3-c]pyridine-2-carboxamide] | 0.1 to 1
Cn1c(C(=O)NC2(C)CCC2)cc2ccnc(Cl)c21 [Example 147, 7-chloro-1-methyl-N-(1-methylcyclobutyl)pyrrolo[2,3-c]pyridine-2-carboxamide] | 0.1 to 1
Cn1c(C(=O)NC(C)(C)C)cc2ccnc(Cl)c21 [Example 148, N-tert-butyl-7-chloro-1-methylpyrrolo[2,3-c]pyridine-2-carboxamide] | 0.1 to 1
Cn1c(C(=O)NC2CC3(CC3)C2)cc2ccnc(Cl)c21 [Example 149, 7-chloro-1-methyl-N-{spiro[2.3]hexan-5-yl}pyrrolo[2,3-c]pyridine-2-carboxamide] | 1 to 10
Cn1c(C(=O)NC2CC3(CCC3)C2)cc2ccnc(Cl)c21 [Example 150, 7-chloro-1-methyl-N-{spiro[3.3]heptan-2-yl}pyrrolo[2,3-c]pyridine-2-carboxamide] | 1 to 10
CCn1c(C(=O)N(C)C23CC(F)(C2)C3)cc2ccnc(C#N)c21 [Example 151, 7-cyano-1-ethyl-N-(3-fluorobicyclo[1.1.1]pentan-1-yl)-N-methyl-1H-pyrrolo[2,3-c]pyridine-2-carboxamide] | 0.1 to 1
Cc1nccc2cc(C(=O)NC34CCC(C3)C4)n(C)c12 [Example 152, N-(bicyclo[2.1.1]hexan-1-yl)-1,7-dimethyl-1H-pyrrolo[2,3-c]pyridine-2-carboxamide] | 1 to 10
CCn1c(C(=O)N(C)C23CC(F)(C2)C3)cc2ccnc(Cl)c21 [Example 153, 7-chloro-1-ethyl-N-(3-fluorobicyclo[1.1.1]pentan-1-yl)-N-methyl-1H-pyrrolo[2,3-c]pyridine-2-carboxamide] | < 0.1
Cn1c(C(=O)NC23CC(F)(C2)C3)cc2ccnc(C(F)(F)F)c21 [Example 154, N-(3-fluorobicyclo[1.1.1]pentan-1-yl)-1-methyl-7-(trifluoromethyl)-1H-pyrrolo[2,3-c]pyridine-2-carboxamide] | 1 to 10
Cn1c(C(=O)NC23CC(C2)C3)cc2ccc(C#N)cc21 [Example 155, N-(bicyclo[1.1.1]pentan-1-yl)-6-cyano-1-methyl-1H-indole-2-carboxamide] | 1 to 10
Cn1c(C(=O)NC23CC(C2)C3)cc2ccncc21 [Example 156, N-(bicyclo[1.1.1]pentan-1-yl)-1-methyl-1H-pyrrolo[2,3-c]pyridine-2-carboxamide] | 0.1 to 1
Cn1c(C(=O)NC23CC(C2)C3)cc2ccc(F)cc21 [Example 157, N-(bicyclo[1.1.1]pentan-1-yl)-6-fluoro-1-methyl-1H-indole-2-carboxamide] | 1 to 10
O=C(NC12CC(F)(C1)C2)c1cc2c(Cl)nccc2s1 [Example 158, 4-chloro-N-(3-fluorobicyclo[1.1.1]pentan-1-yl)thieno[3,2-c]pyridine-2-carboxamide] | 0.1 to 1
COCCN(C(=O)c1cc2ccc(F)cc2[nH]1)c1ccc(C#N)cn1 [Example 159] | 1 to 10
COCCN(C(=O)c1cc2ccc(F)cc2[nH]1)c1ccc(Cl)cn1 [Example 160] | 1 to 10
COCCN(C(=O)c1cc2ccc(F)cc2[nH]1)c1ncccn1 [Example 161] | 1 to 10

Reference: US12012398B2, “Bicyclic compounds as androgen receptor modulators” (NIDO BIOSCIENCES, INC., priority 2021, dated 2024)
